# In patent US11357809B2, “Herbal preparation for stimulation of hair growth, control of hair fall, dandruff and infections thereof using Ageratum spp” (GE Nutrients, Inc., priority 2019, dated 2022):
# Values joined by “and” are separate entries in the source; they are usually repeats but may differ in a detail not shown here. Identical values can stand only once.
# Columns and labels:
# [1] = tested on: bovine corneas; assay: Bovine Corneal Opacity and Permeability assay (ocular irritation)
# Description: SUMMARY: This test was designed to assess the ocular irritation potential of a non-surfactant, liquid article such as Ageratum conyzoides extract. The test is a modification of that described by Gautheron, et. al. (“Bovine Corneal Opacity and Permeability Test: An In Vitro Assay of Ocular Irritancy” Fund. Appl. Toxicol. 18:442-449 (1992)), and Vanparys, et al. (“Evaluation of the bovine opacity-permeability assay as an in vitro alternative to the Draize eye irritation test” Toxicol. In Vitro 7:471-76 (1994)).
# Bovine eyes were obtained by this facility from a local abattoir. The eyes were transported in an appropriate container containing Hank's balanced salt solution (HBSS, Sigma Chemical Co., H-1387). Transportation and storage of the eyes was at approximately 21° C. (70° F.). The eyes were used the day of their harvest and transport.
# Upon test initiation, the iris and the lens were removed and the corneas were placed in the bovine cornea holders. The endothelial surface was applied to the O-ring of the posterior part of the holder. The anterior part of the holder was placed against the epithelial side of the cornea. The two sides of the holder were screwed together. The bovine holders' components were then filled with pre-warmed Eagle's Minimum Essential Media (EM EM, Sigma Chemical Co., M-3024) with 1% Fetal Bovine Serum (FBS, American Type Culture Collection) at approximately 32° C.±2° C. (90° F.±4° F.). The posterior chamber was filled first. The corneas were incubated for approximately one hour, in a 32° C.±2° C. (90° F.±4° F.) water bath. This allowed for the pre-equilibration of the corneas to the external medium.
# After the pre-equilibration period, media from both of the chamber of the cassettes was aspirated, with the anterior chamber being aspirated first. Each chamber was then refilled with fresh EMEM, with the posterior chamber being filled first. Initial opacity readings were taken and recorded. Corneas with initial readings greater than […] were not used. Three corneas were assigned to each test and control article. The corneas with the lowest readings were used as the negative controls.
# The test article and the positive control article (ethanol) and the negative control article (physiological saline) were each tested at 100%.
# A volume of 0.75 milliliters of the appropriate article, pre-warmed to 32° C.±2° C. (90° F.±4° F.), was introduced into the anterior chamber of the appropriate cassettes. The anterior chambers were then plugged and turned to a horizontal position. They were then rotated slightly, so that the article uniformly covered each cornea. The cassettes were incubated for 10 minutes at 32° C.±2° C. (90° F.±4° F.), in a water bath.
# The anterior chambers of each cassette were then refilled with fresh EMEM via syringe. After refilling, the chambers were again plugged. All corneas were then incubated for 2 hours at approximately 32° C.±2° C. (90° F.±4° F.), in a water bath.
# After this 2 hour incubation period, all compartments were emptied and refilled with fresh EMEM. Each holder was individually placed in the “positive” compartment, while the “negative” compartment was left empty. The glass portion of each holder was dried prior to the reading. The opacity of each cornea was taken and recorded. The corneas were also observed grossly. Any unusual findings, such as opaque spots, were recorded.
# After the opacity readings were completed, the medium was removed from the anterior chambers. Either a suitable pipette tip or a flat ended needle was used for this procedure. One milliliter of 6 mg/ml fluorescein (Sodium Fluorescein, Sigma-Aldrich, F-637 in Dulbecco's Phosphate Buffered Saline (DPBS Sigma-Aldrich) pH approximately 7.5) solution was added to each of the anterior chambers. A micro pipette was used for this procedure.
# After the fluorescein solution was added to each anterior compartment, the compartments were plugged. The cassettes were then incubated, in a horizontal position, for 90 minutes at 32° C.±2° C.
# [2] = tested on: 5-alpha-reductase enzyme; conditions: constituents of Ageratum spp. extracts; no test described; cited from earlier work
# [3] = individual cornea, negative control average subtracted
# [4] = mean of three corneas, article at 100%
smiles,measurement,setting,value
"CCO [+Control, Ethanol]",Difference (terminal minus initial opacity),"[1]; individual cornea, article at 100%",51 and 45 and 54
same,Terminal Opacity,"[1]; individual cornea, article at 100%, 10 minute exposure, 2 hour incubation",56 and 46 and 55
same,Initial Opacity,"[1]; individual cornea, baseline reading before exposure",2 and 1 (2×)
same,Optical Density490,"[1]; individual cornea, fluorescein permeability, 90 minutes",1.239 and 0.662 and 1.663
same,Corrected Corneal Opacity,[1]; [3],48.3 and 42.3 and 51.3
same,Corrected OD490,[1]; [3],1.233 and 0.656 and 1.657
same,In Vitro Score,"[1]; individual cornea, Corrected Corneal Opacity + 15 x Corrected OD490",65.8 and 52.5 and 76.2
same,Mean Corrected OD490,[1]; mean of three corneas,1.182
same,Average In Vitro Score,[1]; [4],65.0
same,Mean Corrected Corneal Opacity,[1]; [4],47.3
O=C1CCc2ccccc2O1 [Hydrocoumarin],identified as 5-alpha-reductase inhibitor,[2],5-alpha-reductase inhibitors
CC/C=C\C/C=C\C/C=C\CCCCCCCC(=O)O [Alpha-linolenic acid],identified as 5-alpha-reductase inhibitor,[2],5-alpha-reductase inhibitors
CCCCCCCCCCCCCCCC(=O)O [Hexadecanoic acid],identified as 5-alpha-reductase inhibitor,[2],5-alpha-reductase inhibitors
"CCCCC/C=C\C/C=C\CCCCCCCC(=O)O [9,12-octadecadienoic acid (Z,Z)-]",identified as 5-alpha-reductase inhibitor,[2],5-alpha-reductase inhibitors
